# Measured values taken from patent US12578336B2, “ATP detection” (Promega Corporation, priority 2022, dated 2026).
# “Also recorded” adds a separate entry of the source.
# B1: ENPP1: zinc-dependent enzyme that converts ATP to AMP and pyrophosphate (protein, UniProt P22413 1-925, looked up)
# Ectonucleotide …: MERDGCAGGGSRGGEGGRAPREGPAGNGRDRGRSHAAEAPGDPQAAASLLAPMDVGEEPLEKAARARTAKDPNTYKVLSLVLSVCVLTTILGCIFGLKPSCAKEVKSCKGRCFERTFGNCRCDAACVELGNCCLDYQETCIEPEHIWTCNKFRCGEKRLTRSLCACSDDCKDKGDCCINYSSVCQGEKSWVEEPCESINEPQCPAGFETPPTLLFSLDGFRAEYLHTWGGLLPVISKLKKCGTYTKNMRPVYPTKTFPNHYSIVTGLYPESHGIIDNKMYDPKMNASFSLKSKEKFNPEWYKGEPIWVTAKYQGLKSGTFFWPGSDVEINGIFPDIYKMYNGSVPFEERILAVLQWLQLPKDERPHFYTLYLEEPDSSGHSYGPVSSEVIKALQRVDGMVGMLMDGLKELNLHRCLNLILISDHGMEQGSCKKYIYLNKYLGDVKNIKVIYGPAARLRPSDVPDKYYSFNYEGIARNLSCREPNQHFKPYLKHFLPKRLHFAKSDRIEPLTFYLDPQWQLALNPSERKYCGSGFHGSDNVFSNMQALFVGYGPGFKHGIEADTFENIEVYNLMCDLLNLTPAPNNGTHGSLNHLLKNPVYTPKHPKEVHPLVQCPFTRNPRDNLGCSCNPSILPIEDFQTQFNLTVAEEKIIKHETLPYGRPRVLQKENTICLLSQHQFMSGYSQDILMPLWTSYTVDRNDSFSTEDFSNCLYQDFRIPLSPVHKCSFYKNNTKVSYGFLSPPQLNKNSSGIYSEALLTTNIVPMYQSFQVIWRYFHDTLLRKYAEERNGVNVVSGPVFDFDYDGRCDSLENLRQKRRVIRNQEILIPTHFFIVLTSCKDTSQTPLHCENLDTLAFILPHRTDNSESCVHGKHDSSWVEELLMLHRARITDVEHITGLSFYQQRKEPVSDILKLKTHLPTFSQED
# Columns and labels:
# ENPP1 = biological target: T1, ENPP1 (Homo sapiens, UniProt P22413); test: ENPP1 ATP degradation and its inhibition by chelators/inhibitor, Kinase-Glo; type: biochemical
# T1 sequence (P22413 1-925): B1 Ectonucleotide …
# Description: ENPP1 converts ATP to AMP and pyrophosphate, is zinc-dependent, and is inactivated by EGTA, by the zinc chelator N,N,N′,N′-Tetrakis (2 pyridylmethyl) ethylenediamine (TPEN), and by certain small molecule inhibitors.
# ENPP1 (100 ng/reaction) was incubated with 10 μM ATP and varying amounts of chelators (EGTA, TPEN) or an ENPP1 selective inhibitor called inhibitor C in a reaction buffer containing 50 mM Tris HCl, pH 7.5, 250 mM NaCl, 5 uM ZnCl2, 0.1 mg/ml BSA. The reactions were allowed to proceed for 60 minutes.
# [1] = tested on: St-apyrase (Ca2+/Mg2+ apyrase from potato); test: Inhibition of St-apyrase by EGTA, luminescence over time; type: biochemical, Solanum tuberosum; conditions: same amount of EGTA; luminescence declined over time
# From the text: (§1) The Ca^2+/Mg^2+ apyrase from potato, Solanum tuberosum (St-apyrase), is the most commonly used apyrase for ATP elimination. However, its inactivation requires measures, such as high temperature or extreme pH treatment, which are incompatible with the simple cartridge design disclosed here. The need for an extended heating time for apyrase inactivation is also incompatible with the goal of rapid sample collection and analysis. […] Cl- and St-apyrase were compared for their capacity to remove extracellular ATP and to be inhibited by the Ca^2+-selective chelator EGTA. Mg^2+ is critical for luciferase activity so the Mg^2+-selective chelator EDTA was not tested. In the absence of EGTA, both enzymes eliminated ATP as indicated by a time-dependent decrease in luminescence (FIG. 3).
# Pp-apyrase [2] = biological target: T2, Pp-apyrase (Phlebotomus papatasi, UniProt Q9GTP7); test: Inactivation of Pp-apyrase by EGTA in cell lysis/ATP detection reagent, tube format; type: biochemical; conditions: 10 mM EGTA in cell lysis/ATP detection reagent
# T2 construct: GST (glutathione S transferase); made in house; host or cells: E. coli
# T2 sequence (Q9GTP7 22-336 limits assumed): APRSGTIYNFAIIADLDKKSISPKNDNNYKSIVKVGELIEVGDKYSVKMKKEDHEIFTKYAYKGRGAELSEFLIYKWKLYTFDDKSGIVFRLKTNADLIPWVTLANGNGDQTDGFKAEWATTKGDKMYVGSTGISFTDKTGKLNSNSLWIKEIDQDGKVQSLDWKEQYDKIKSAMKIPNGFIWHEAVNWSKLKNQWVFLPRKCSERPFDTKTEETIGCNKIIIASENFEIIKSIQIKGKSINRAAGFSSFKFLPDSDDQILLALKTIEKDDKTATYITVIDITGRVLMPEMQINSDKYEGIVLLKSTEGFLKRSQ
# Description: Luminescent signals were measured over time starting immediately after addition of the lysis/ATP detection reagent. Reactions were performed in microcentrifuge-style tubes and analyzed for luminescence on a single tube reading luminometer (GloMax® 20/20, Promega Corp.).
# Reactions were performed in microcentrifuge-style tubes and analyzed for luminescence on a single tube reading luminometer (GloMax® 20/20, Promega Corp.).
# Cl-apyrase (Ca-apyrase) = biological target: T3, Cl-apyrase (Ca-apyrase) (Cimex lectularius, UniProt O96559); test: Inhibition of Cl-apyrase by EGTA, luminescence over time; type: biochemical; conditions: EGTA present; decline of luminescence over time
# T3 construct: His tag; made in house; host or cells: E. coli
# T3 sequence (O96559 36-364 limits assumed): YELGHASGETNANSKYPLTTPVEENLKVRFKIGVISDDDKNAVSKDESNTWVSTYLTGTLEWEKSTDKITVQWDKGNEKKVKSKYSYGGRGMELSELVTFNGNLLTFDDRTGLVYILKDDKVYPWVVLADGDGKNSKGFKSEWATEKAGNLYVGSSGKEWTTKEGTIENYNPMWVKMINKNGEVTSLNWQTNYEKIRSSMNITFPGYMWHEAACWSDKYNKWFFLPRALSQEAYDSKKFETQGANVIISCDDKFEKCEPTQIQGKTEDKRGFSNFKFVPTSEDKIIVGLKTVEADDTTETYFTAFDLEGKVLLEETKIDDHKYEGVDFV
# From the text: as §1
# Pp-apyrase [3] = biological target: T2, Pp-apyrase; test: Inhibition of Pp-apyrase by EGTA in cartridge format; type: biochemical; conditions: EGTA in lysis/ATP detection reagent, after an initial ATP elimination step
# Description: Apyrase from the sandfly Phlebotomus papatasi (Pp-apyrase) was also characterized for use in an exemplary cartridge format. […] Empty plastic cartridges were obtained from Empire Bio Diagnostics. […] 20 second exposures of ATP in swab tips were followed by immersion of the swab tips in the cartridge receptacle in the ATP detection/cell lysis formulation with 10 mM EGTA described for FIG. 6, and then insertion of the cartridge receptacle in a handheld luminometer (luminometer prototype by Empire Bio Diagnostics). […] A portion of the values shown above the vertical axis represent luminescent values too low to be visible as bars on the graph.
Molecule,inactivation of ENPP1 (in words) (ENPP1),St-apyrase inhibition in the presence of EGTA (in words) [1],inactivation of Pp-apyrase (in words) (Pp-apyrase [2]),Cl-apyrase activity in the presence of EGTA (in words) (Cl-apyrase (Ca-apyrase)),inhibition of Pp-apyrase in cartridge format (in words) (Pp-apyrase [3]),"conditionally active ATP eliminating properties (in words) (ENPP1; ENPP1 100 ng/reaction, 10 μM ATP, 60 minutes, 5 uM ZnCl2)"
"c1ccc(CN(CCN(Cc2ccccn2)Cc2ccccn2)Cc2ccccn2)nc1 [TPEN, N,N,N′,N′-Tetrakis (2 pyridylmethyl) ethylenediamine]",inactivated,,,,,
O=C(O)CN(CCOCCOCCN(CC(=O)O)CC(=O)O)CC(=O)O [EGTA],inactivated,only partially inhibited,effectively inactivated; also recorded: substantially inactivated,no Cl-apyrase activity was detected; also recorded: substantially inactivated,effective,
B1,,,,,,qualitatively demonstrated the conditionally active ATP eliminating properties
